Where a name gives a salt, the structure may show the parent alone. Read-outs that look alike come from different tables or passages of the source.
Assays:
[1] = format: in vitro ADME, human
Method: (§1) The term "skin flux" intends the rate of transfer of drug across skin as measured by the method of Merritt and Cooper (J Controlled Release (1984) 1:161). The units of flux are preferably μg/cm^2 /hr.
(§2) The following examples further illustrate the invention and its unique characteristics. These examples are not intended to limit the invention in any manner. In the following examples in vitro steady state transdermal flux across human cadaver skin was determined using the method of Merritt and Cooper, supra. Unless otherwise indicated percentages and proportions are by volume.
Formulations of progesterone at varying concentrations were made by mixing progesterone with the indicated ingredients and applied to cadaver skin. The meanings of the abbreviations that appear in the table are: Gly=glycerine; GDO=glycerol dioleate; ML=methyl laurate; OA=oleic acid; GMO=glycerol monooleate.
Additional progesterone systems were formulated and tested as in Example 1. Abbreviations are as in Example 1. Progesterone was present at saturation in system 1 and below saturation in systems 2-6.
Formulations of the hydrophilic drugs oxybutynin HCl and mecamylamine HCl were prepared and tested as in Examples 1 and 2. The formulations of Table 3 containing oxybutynin HCl at 40 mg/ml were saturated and the formulations of Table 4 containing 80 mg/ml of mecamylamine HCl were saturated. All other systems were at drug concentrations below saturation.
[…]. The matrix containing 30% norethindrone acetate was saturated; all others were subsaturated.

[2] = cumulative permeation at 24 hr through skin in vitro; format: in vitro ADME, human; details: for Cumulative Permeation: 24 hr
Method: as §1
as §2, with “volume. […]” for “volume.”
[…]. The matrix containing 8% estradiol was saturated; the others were subsaturated.
The matrix containing 8% estradiol was saturated; the others were subsaturated.

Q: Which results are given for `CCN(CC)CC#CCOC(=O)C(O)(c1ccccc1)C1CCCCC1` (stereo not shown) [Oxybutyrin, oxybutynin HCl]?
A: Flux ([1]; Table 3 system 1, 5 mg/ml, 40/53/5/2 EtOH/H2O/Gly/GMO, N=3): 5.6 ± 0.9 μg/cm^2 /hr; Flux ([1]; Table 3 system 1, 10 mg/ml, 40/53/5/2 EtOH/H2O/Gly/GMO, N=6): 13.3 ± 2.6 μg/cm^2 /hr; Flux ([1]; Table 3 system 1, 20 mg/ml, 40/53/5/2 EtOH/H2O/Gly/GMO, N=12): 16.9 ± 5.2 μg/cm^2 /hr; Flux ([1]; Table 3 system 1, 40 mg/ml (saturated), 40/53/5/2 EtOH/H2O/Gly/GMO, N=4): 29.1 ± 11.2 μg/cm^2 /hr; Flux ([1]; Table 3 system 2, 5 mg/ml, 40/54/5/1 EtOH/H2O/Gly/GMO, N=3): 8.0 ± 1.4 μg/cm^2 /hr; Flux ([1]; Table 3 system 2, 10 mg/ml, 40/54/5/1 EtOH/H2O/Gly/GMO, N=6): 10.1 ± 3.3 μg/cm^2 /hr; Flux ([1]; Table 3 system 2, 20 mg/ml, 40/54/5/1 EtOH/H2O/Gly/GMO, N=12): 17.5 ± 5.1 μg/cm^2 /hr; Flux ([1]; Table 3 system 2, 40 mg/ml (saturated), 40/54/5/1 EtOH/H2O/Gly/GMO, N=5): 38.8 ± 18.9 μg/cm^2 /hr; Flux ([1]; Table 3 system 3, 5 mg/ml, 30/63/5/2 EtOH/H2O/Gly/GMO, N=3): 2.2 ± 0.2 μg/cm^2 /hr; Flux ([1]; Table 3 system 3, 10 mg/ml, 30/63/5/2 EtOH/H2O/Gly/GMO, N=9): 8.3 ± 3.8 μg/cm^2 /hr; Flux ([1]; Table 3 system 3, 20 mg/ml, 30/63/5/2 EtOH/H2O/Gly/GMO, N=12): 14.8 ± 6.1 μg/cm^2 /hr; Flux ([1]; Table 3 system 3, 40 mg/ml (saturated), 30/63/5/2 EtOH/H2O/Gly/GMO, N=6): 23.9 ± 10.0 μg/cm^2 /hr; Flux ([1]; Table 3 system 4, 5 mg/ml, 30/64/5/1 EtOH/H2O/Gly/GMO, N=3): 1.7 ± 0.3 μg/cm^2 /hr; Flux ([1]; Table 3 system 4, 10 mg/ml, 30/64/5/1 EtOH/H2O/Gly/GMO, N=6): 5.4 ± 2.5 μg/cm^2 /hr; Flux ([1]; Table 3 system 4, 20 mg/ml, 30/64/5/1 EtOH/H2O/Gly/GMO, N=15): 13.6 ± 5.2 μg/cm^2 /hr; Flux ([1]; Table 3 system 4, 40 mg/ml (saturated), 30/64/5/1 EtOH/H2O/Gly/GMO, N=6): 27.5 ± 13.1 μg/cm^2 /hr

Q: What does the source list for `C[C@]12CC[C@@H]3c4ccc(O)cc4CC[C@H]3[C@@H]1CC[C@@H]2O` [estradiol]?
A: Cumulative Permeation ([2]; Table 7, 1% estradiol, acrylic adhesive matrix with 20% sorbitan monooleate, S.D. 1.40): 11.36 μg/cm^2; Cumulative Permeation ([2]; Table 7, 2% estradiol, acrylic adhesive matrix with 20% sorbitan monooleate, S.D. 6.24): 28.31 μg/cm^2; Cumulative Permeation ([2]; Table 7, 3% estradiol, acrylic adhesive matrix with 20% sorbitan monooleate, S.D. 6.64): 40.88 μg/cm^2; Cumulative Permeation ([2]; Table 7, 4% estradiol, acrylic adhesive matrix with 20% sorbitan monooleate, S.D. 4.46): 44.94 μg/cm^2; Cumulative Permeation ([2]; Table 7, 6% estradiol, acrylic adhesive matrix with 20% sorbitan monooleate, S.D. 3.03): 22.56 μg/cm^2; Cumulative Permeation ([2]; Table 7, 8% estradiol (saturated), acrylic adhesive matrix with 20% sorbitan monooleate, S.D. 5.25): 12.93 μg/cm^2; Cumulative Permeation ([2]; Table 8, 1% estradiol, acrylic adhesive matrix without permeation enhancer, S.D. 1.84): 9.33 μg/cm^2; Cumulative Permeation ([2]; Table 8, 2% estradiol, acrylic adhesive matrix without permeation enhancer, S.D. 1.42): 16.55 μg/cm^2; Cumulative Permeation ([2]; Table 8, 3% estradiol, acrylic adhesive matrix without permeation enhancer, S.D. 2.16): 21.21 μg/cm^2; Cumulative Permeation ([2]; Table 8, 4% estradiol, acrylic adhesive matrix without permeation enhancer, S.D. 0.64): 16.11 μg/cm^2; Cumulative Permeation ([2]; Table 8, 6% estradiol, acrylic adhesive matrix without permeation enhancer, S.D. 0.27): 18.42 μg/cm^2; Cumulative Permeation ([2]; Table 8, 8% estradiol (saturated), acrylic adhesive matrix without permeation enhancer, S.D. 3.93): 9.20 μg/cm^2; maximum permeation versus estradiol concentration ([2]; matrices with sorbitan monolaurate, ointments EtOH/H2O/Gly/GMO/ML 20/60/5/7.5/7.5): maximum permeation was observed at estradiol concentrations below saturation

Q: With `CC(C)NCC(O)COc1cccc2[nH]ccc12` (stereo not shown) [pindolol free base, pindolol] as the molecule, how does the “dependence of flux on drug concentration” value ([1]; ointment and solid matrix systems) read?
A: classic Fickian dependence of flux on drug concentration

Q: With `CC(=O)[C@H]1CC[C@H]2[C@@H]3CCC4=CC(=O)CC[C@]4(C)[C@H]3CC[C@]12C` [progesterone] as the molecule, how does the Flux ([1]; Table 1 system 1, 75.0 mg/ml (saturated), 60/22.5/10/2.5/2.5/2.5 EtOH/H2O/Gly/GDO/ML/OA, N=8) read?
A: 2.12 ± 0.47 μg/cm^2 /hr

Q: And the Flux ([1]; Table 1 system 2, 50 mg/ml, 60/22.5/10/2.5/2.5/2.5 EtOH/H2O/Gly/GDO/ML/OA, N=18)?
A: 4.51 ± 1.37 μg/cm^2 /hr

Q: And the Flux ([1]; Table 1 system 3, 25 mg/ml, 60/22.5/10/2.5/2.5/2.5 EtOH/H2O/Gly/GDO/ML/OA, N=3)?
A: 5.52 ± 1.38 μg/cm^2 /hr

Q: And the Flux ([1]; Table 1 system 4, 75 mg/ml (saturated), 60/22.5/10/2.5/2.5/2.5 EtOH/H2O/Gly/GMO/ML/OA, N=8)?
A: 3.35 ± 2.18 μg/cm^2 /hr

Q: And the Flux ([1]; Table 1 system 5, 50 mg/ml, 60/22.5/10/2.5/2.5/2.5 EtOH/H2O/Gly/GMO/ML/OA, N=18)?
A: 7.63 ± 3.00 μg/cm^2 /hr

Q: And the Flux ([1]; Table 1 system 6, 37.5 mg/ml, 60/22.5/10/2.5/2.5/2.5 EtOH/H2O/Gly/GMO/ML/OA, N=6)?
A: 8.18 ± 0.90 μg/cm^2 /hr

Q: And the Flux ([1]; Table 1 system 7, 25 mg/ml, 60/22.5/10/2.5/2.5/2.5 EtOH/H2O/Gly/GMO/ML/OA, N=18)?
A: 6.37 ± 1.88 μg/cm^2 /hr

Q: And the Flux ([1]; Table 1 system 8, 10 mg/ml, 60/22.5/10/2.5/2.5/2.5 EtOH/H2O/Gly/GMO/ML/OA, N=3)?
A: 1.84 ± 0.33 μg/cm^2 /hr

Q: And the “flux at subsaturated concentrations versus at saturation” value ([1]; Table 1 systems, except 8)?
A: significantly greater

Q: And the Flux ([1]; Table 2 system 1, 50 mg/ml (saturated), 60/22.5/10/2.5/2.5/2.5 EtOH/H2O/Gly/GDO/ML/OA, N=12)?
A: 6.01 ± 1.73 μg/cm^2 /hr

Q: What about the Flux ([1]; Table 2 system 2, 30 mg/ml, 60/28/10/1/1 EtOH/H2O/Gly/GMO/ML, N=3) of the same molecule?
A: 13.03 ± 3.35 μg/cm^2 /hr

Q: What about the Flux ([1]; Table 2 system 3, 25 mg/ml, 60/28/10/1/1 EtOH/H2O/Gly/GMO/ML, N=3) of the same molecule?
A: 12.98 ± 2.06 μg/cm^2 /hr

Q: And the Flux ([1]; Table 2 system 4, 20 mg/ml, 60/28/10/1/1 EtOH/H2O/Gly/GMO/ML, N=9)?
A: 15.89 ± 6.81 μg/cm^2 /hr

Q: And the Flux ([1]; Table 2 system 5, 15 mg/ml, 60/28/10/1/1 EtOH/H2O/Gly/GMO/ML, N=12)?
A: 13.13 ± 1.87 μg/cm^2 /hr

Q: What about the Flux ([1]; Table 2 system 6, 10 mg/ml, 60/28/10/1/1/1 EtOH/H2O/Gly/GMO/ML, N=5) of the same molecule?
A: 11.13 ± 1.98 μg/cm^2 /hr

Q: What about the “fluxes at concentrations below saturation versus at saturation” value ([1]; Table 2 systems) of the same molecule?
A: significantly greater than at saturation
